The text below walks through data of ChEMBL document CHEMBL1201862, “PubChem BioAssay data set” (2004).

The source made the active and inactive calls.

The target in test [1] is T1, Melanocortin receptor 4 (Homo sapiens, UniProt P32245). The test is classed as functional, cell-based.
The target of test [2] is Fructose-bisphosphate aldolase (Mycobacterium tuberculosis, UniProt P9WQA3). The test can be described thus: Fluorescence-based biochemical high throughput dose response assay for inhibitors of the fructose-bisphosphate aldolase (FBA) of M. tuberculosis. The test is classed as functional.
Fructose-bisphosphate aldolase, sequence (P9WQA3 whole entry): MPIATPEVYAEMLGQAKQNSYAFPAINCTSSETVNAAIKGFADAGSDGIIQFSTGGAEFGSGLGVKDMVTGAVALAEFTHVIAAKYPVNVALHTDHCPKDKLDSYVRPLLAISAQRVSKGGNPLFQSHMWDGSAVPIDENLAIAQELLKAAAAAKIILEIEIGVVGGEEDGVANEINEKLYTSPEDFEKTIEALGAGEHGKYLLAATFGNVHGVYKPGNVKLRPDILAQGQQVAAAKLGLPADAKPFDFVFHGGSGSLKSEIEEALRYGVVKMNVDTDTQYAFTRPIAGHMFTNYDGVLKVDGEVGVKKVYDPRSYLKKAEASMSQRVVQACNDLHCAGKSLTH
For test [3], the target named is Nuclear receptor subfamily 0 group B member 1 (Homo sapiens, UniProt P51843). It is filed as functional, cell-based.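 Note: HEK293T cells transfected with SF-1 and DAX-1 plus StAR promoter luciferase reporter.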
Nuclear receptor subfamily 0 group B member 1, sequence (P51843 whole entry): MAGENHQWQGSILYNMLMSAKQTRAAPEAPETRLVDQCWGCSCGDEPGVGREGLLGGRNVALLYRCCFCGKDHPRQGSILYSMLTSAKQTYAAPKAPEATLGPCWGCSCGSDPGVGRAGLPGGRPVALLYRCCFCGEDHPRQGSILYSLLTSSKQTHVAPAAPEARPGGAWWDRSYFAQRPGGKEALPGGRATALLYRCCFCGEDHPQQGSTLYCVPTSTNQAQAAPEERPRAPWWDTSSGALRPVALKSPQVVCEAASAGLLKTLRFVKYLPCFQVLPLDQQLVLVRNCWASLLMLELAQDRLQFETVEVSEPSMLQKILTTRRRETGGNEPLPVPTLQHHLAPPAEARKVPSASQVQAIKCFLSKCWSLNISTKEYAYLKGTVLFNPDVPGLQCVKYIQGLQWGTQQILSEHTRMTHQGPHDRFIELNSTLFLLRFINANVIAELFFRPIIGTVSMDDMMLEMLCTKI
A short description of another test: cells. The test is classed as functional, cell-based.
Test [4] concerns the target T1, Melanocortin receptor 4. The test can be described thus: inhibitors of MC4R cAMP signaling – cell-based, TR-FRET, biased antagonists, dose response (AID 602298).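 Note: antagonist potency against agonist-stimulated cAMP production.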 It is filed as functional.
Test [5] in a line: non-specific 3'UTR reporter inhibition in Clone20-Shn3RL – cell-based, Renilla luciferase, cherry-picked, counter-screen for Shn3 inhibitor project, dose response (AID 624133). It is filed as functional. Background: A counterscreen serves to expose hits that act by an unwanted route or on another target.
A short description of test [6]: reduction of Shn3 3'UTR-driven luciferase in osteoblasts – cell-based, Clone20 osteoblasts, firefly luciferase, cherry-picked, dose response (AID 624132).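 Note: firefly luciferase luminescence from reporter carrying the Shn3 3'UTR in osteoblasts.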 The test is classed as functional.
The nature of test [7]: loss of viability in HepG2 cells – cell-based, CellTiter-Glo, cherry-picked, cytotoxicity control for Shn3 inhibitor project, dose response (AID 624134). The test is classed as functional. A general note: In ATP-based viability assays light output follows the ATP content of the culture.
Test [8] in a line: cAMP pathway inhibition in counterscreen cell line – TR-FRET cAMP detection, counter-screen for MC4R biased antagonist project, dose response (AID 602305).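 Note: U2OS cells stimulated with forskolin near its EC80 as the cAMP inducer; potency is for inhibition of forskolin-stimulated cAMP signaling.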 The test is classed as functional, cell-based.
The target in test [9] is Mitochondrial peptide methionine sulfoxide reductase (Bos taurus, UniProt P54149). The test is described as follows: Absorbance-based biochemical high throughput dose response assay for activators of Methionine sulfoxide reductase A (MsrA). The test is classed as functional.
In test [10] the target is T2, Rac GTPase-activating protein 1 (Homo sapiens, UniProt Q9H0H5).
T2 sequence (Q9H0H5 whole entry): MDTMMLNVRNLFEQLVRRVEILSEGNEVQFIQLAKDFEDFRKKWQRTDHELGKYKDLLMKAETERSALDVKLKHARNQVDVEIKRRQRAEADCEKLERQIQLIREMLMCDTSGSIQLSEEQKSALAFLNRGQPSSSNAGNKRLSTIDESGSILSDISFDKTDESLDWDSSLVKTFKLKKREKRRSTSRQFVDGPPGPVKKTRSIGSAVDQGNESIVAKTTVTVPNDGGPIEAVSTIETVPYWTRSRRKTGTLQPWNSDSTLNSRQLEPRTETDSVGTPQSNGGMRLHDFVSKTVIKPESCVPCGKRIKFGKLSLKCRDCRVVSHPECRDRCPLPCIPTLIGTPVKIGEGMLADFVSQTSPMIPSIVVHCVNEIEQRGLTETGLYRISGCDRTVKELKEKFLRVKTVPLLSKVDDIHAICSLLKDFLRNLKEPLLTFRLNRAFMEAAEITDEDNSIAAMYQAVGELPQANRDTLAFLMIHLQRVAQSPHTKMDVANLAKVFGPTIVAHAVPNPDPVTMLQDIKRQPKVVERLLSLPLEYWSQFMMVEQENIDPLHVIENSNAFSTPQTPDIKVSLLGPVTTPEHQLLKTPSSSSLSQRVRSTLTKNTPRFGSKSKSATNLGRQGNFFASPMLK
The test can be described thus: blockers of MgcRacGAP-driven Rac1 GTP hydrolysis – biochemical, ADP Hunter fluorescence, primary and confirmatory, confirmation (AID 624330). It is filed as functional.

Test [11] in a line: Counterscreen for activators of the function of SWI/SNF related, matrix associated, actin dependent regulator of chromatin, subfamily a, member 2 (SMARCA2, BRM): Luminescence-based cell-based high throughput dose response assay to identify non-selective compounds using the VP16 reporter assay. It is filed as functional.
Test [12] is described as follows: Fluorescence-based cell-based high throughput dose response assay for inhibitors of the interaction of nucleotide-binding oligomerization domain containing 2 (NOD2) and the receptor-interacting serine-threonine kinase 2 (RIPK2). It is filed as functional. Particulars: Homo sapiens.
A further test has as its target Hexokinase (Trypanosoma brucei, UniProt Q38C41). The test is described as follows: Confirmation assay for inhibitors of Trypanosoma brucei hexokinase 1-Analogue-first series. [Related pubchem assays (depositor defined):AID1430, AID1632, AID2516, AID2560, AID2579, AID2600, AID449725, AID492951]. The test is classed as functional.
A further test deals with Beta Lactamase (Pseudomonas aeruginosa, UniProt Q932Y6). The test is described as follows: BLA reporter interference, concentration series – BLA reporter cells, FRET fluorescence, artefact control for NOD2-RIPK2 interaction inhibitor project, dose response (AID 651552). The test is classed as functional, cell-based.
Test [13] deals with SWI/SNF-related matrix-associated actin-dependent regulator of chromatin subfamily A member 2 (Homo sapiens, UniProt P51531). The test can be described thus: Luminescence-based cell-based high throughput dose response assay to identify activators of the function of SWI/SNF related, matrix associated, actin dependent regulator of chromatin, subfamily a, member 2 (SMARCA2, BRM). It is filed as functional.
SWI/SNF-related matrix-associated actin-dependent regulator of chromatin subfamily A member 2, sequence (P51531 whole entry): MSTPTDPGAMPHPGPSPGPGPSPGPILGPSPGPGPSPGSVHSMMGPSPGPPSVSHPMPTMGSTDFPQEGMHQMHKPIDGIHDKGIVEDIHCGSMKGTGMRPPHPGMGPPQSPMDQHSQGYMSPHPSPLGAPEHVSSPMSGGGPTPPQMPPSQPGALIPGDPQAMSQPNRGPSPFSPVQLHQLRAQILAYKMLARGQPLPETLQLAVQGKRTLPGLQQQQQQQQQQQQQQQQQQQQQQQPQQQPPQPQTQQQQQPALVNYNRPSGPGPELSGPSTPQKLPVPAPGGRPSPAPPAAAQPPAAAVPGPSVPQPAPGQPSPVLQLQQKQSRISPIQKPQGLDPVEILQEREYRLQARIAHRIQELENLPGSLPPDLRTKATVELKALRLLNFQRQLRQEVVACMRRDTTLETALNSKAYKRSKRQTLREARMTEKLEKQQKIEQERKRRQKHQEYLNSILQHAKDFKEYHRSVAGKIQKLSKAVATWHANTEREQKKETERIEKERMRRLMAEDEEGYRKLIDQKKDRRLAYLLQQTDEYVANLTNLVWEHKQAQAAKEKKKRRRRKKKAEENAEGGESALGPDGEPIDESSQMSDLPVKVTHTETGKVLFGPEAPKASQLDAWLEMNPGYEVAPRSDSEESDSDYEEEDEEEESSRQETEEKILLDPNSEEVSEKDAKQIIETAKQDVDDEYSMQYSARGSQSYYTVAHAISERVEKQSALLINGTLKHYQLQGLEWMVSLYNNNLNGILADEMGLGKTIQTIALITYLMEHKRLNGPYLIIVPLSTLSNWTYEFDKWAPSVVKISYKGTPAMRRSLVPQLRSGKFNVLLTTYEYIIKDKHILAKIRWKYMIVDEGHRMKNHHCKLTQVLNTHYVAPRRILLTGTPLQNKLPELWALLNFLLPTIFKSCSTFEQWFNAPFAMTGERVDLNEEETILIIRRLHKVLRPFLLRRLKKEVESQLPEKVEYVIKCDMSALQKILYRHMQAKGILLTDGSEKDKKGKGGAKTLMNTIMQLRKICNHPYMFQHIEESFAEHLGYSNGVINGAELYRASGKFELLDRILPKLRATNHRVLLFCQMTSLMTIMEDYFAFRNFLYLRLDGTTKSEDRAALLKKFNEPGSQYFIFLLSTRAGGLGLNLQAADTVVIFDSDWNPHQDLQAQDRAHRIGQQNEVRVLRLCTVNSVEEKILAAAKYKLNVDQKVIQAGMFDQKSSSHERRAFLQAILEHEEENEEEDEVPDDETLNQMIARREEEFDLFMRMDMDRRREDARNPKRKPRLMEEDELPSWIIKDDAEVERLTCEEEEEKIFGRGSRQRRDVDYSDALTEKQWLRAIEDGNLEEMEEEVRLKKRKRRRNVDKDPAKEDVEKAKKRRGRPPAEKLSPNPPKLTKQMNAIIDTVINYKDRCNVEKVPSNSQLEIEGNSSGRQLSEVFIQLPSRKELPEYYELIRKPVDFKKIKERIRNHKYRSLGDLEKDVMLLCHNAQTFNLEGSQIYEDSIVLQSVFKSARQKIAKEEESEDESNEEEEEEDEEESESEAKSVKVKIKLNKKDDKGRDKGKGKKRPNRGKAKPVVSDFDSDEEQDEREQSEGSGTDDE

In test [14] the target is Glucose-6-phosphate 1-dehydrogenase (Homo sapiens, UniProt P11413). The test is described as follows: inhibition of Homo sapiens G6PD, dose series – biochemical, fluorescence, selectivity assay for P. falciparum G6PD inhibitor project, dose response (AID 504792). The test is classed as functional.
Glucose-6-phosphate 1-dehydrogenase, sequence (P11413 whole entry): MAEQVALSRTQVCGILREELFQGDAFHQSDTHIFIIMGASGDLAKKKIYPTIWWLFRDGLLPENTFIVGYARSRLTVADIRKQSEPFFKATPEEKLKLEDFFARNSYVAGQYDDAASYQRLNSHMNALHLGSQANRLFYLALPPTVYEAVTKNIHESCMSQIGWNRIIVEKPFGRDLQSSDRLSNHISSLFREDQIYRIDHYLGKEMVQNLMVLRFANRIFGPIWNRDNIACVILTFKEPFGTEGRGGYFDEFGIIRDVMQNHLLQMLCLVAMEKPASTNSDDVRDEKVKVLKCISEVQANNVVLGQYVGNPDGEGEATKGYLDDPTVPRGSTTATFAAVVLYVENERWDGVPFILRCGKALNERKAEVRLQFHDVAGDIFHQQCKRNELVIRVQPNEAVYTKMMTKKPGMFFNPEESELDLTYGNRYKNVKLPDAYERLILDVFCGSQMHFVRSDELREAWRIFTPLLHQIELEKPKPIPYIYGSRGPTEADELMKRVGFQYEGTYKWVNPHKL
The test system of test [15] is HEK293. The test can be described thus: HEK293T cell viability loss, resazurin readout – resazurin fluorescence, cytotoxicity control for NF-kB activator project, SAR follow-up (AID 493251). It is filed as functional, cell-based. As to conditions: Homo sapiens. A general note: Alamar Blue is a resazurin reagent that responds to reducing activity.
A further test concerns Jurkat. The test is described as follows: SAR Analysis of small molecule inhibitors of T-cell specific antigen receptor-induced NF-kB activation in a Jurkat cell line using a luminescence assay - Set 2. [Related pubchem assays (depositor defined):AID435003, AID435012, AID465]. The test is classed as functional, cell-based. As to conditions: Homo sapiens.
The test system of test [16] is HEK293. The test can be described thus: SAR Analysis of small molecule inhibitors of T-cell specific antigen receptor-induced NF-kB activation in a HEK-293T cell line using a luminescence assay - Set 2. [Related pubchem assays (depositor defined):AID435003, AID435012, AID489026]. It is filed as functional, cell-based. As to conditions: Homo sapiens.
The target in test [17] is T3, Botulinum neurotoxin type A (Clostridium botulinum (strain Hall / ATCC 3502 / NCTC 13319 / Type A), UniProt P0DPI1). The test can be described thus: High-throughput multiplex microsphere dose response for inhibitors of toxin protease, specifically Botulinum neurotoxin light chain A protease, compounds from Powder Set 01. It is filed as functional, Clostridium botulinum A str. ATCC 3502. As to conditions: read-out: EC50_MICROM.
T3 sequence (P0DPI1 2-448 limits assumed): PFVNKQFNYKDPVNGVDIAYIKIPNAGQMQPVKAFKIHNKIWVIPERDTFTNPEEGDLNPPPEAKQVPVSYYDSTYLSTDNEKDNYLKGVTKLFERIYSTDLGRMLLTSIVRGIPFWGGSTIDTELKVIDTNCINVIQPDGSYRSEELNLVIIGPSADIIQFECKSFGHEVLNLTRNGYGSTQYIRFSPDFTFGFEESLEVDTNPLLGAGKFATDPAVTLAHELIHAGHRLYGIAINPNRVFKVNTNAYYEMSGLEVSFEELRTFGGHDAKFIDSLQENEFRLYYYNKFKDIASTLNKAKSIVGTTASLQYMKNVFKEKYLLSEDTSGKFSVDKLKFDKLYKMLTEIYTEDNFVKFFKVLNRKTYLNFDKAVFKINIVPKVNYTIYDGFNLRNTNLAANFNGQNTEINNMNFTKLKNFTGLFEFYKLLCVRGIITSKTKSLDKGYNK

Test [18] has as its target T3, Botulinum neurotoxin type A. The test can be described thus: High-throughput multiplex microsphere dose response for inhibitors of toxin protease, specifically Botulinum neurotoxin light chain A protease, compounds from Cherry Pick 01. The test is classed as functional. Particulars: read-out: EC50_MICROM.
The target in a further test is Lethal factor (Bacillus anthracis, UniProt P15917). The test can be described thus: High-throughput multiplex microsphere dose response for inhibitors of toxin protease, specifically Lethal Factor protease, compounds from Powder Set 01. The test is classed as functional, Bacillus anthracis str. A2012. Particulars: read-out: EC50_MICROM.
Lethal factor, sequence (P15917 whole entry): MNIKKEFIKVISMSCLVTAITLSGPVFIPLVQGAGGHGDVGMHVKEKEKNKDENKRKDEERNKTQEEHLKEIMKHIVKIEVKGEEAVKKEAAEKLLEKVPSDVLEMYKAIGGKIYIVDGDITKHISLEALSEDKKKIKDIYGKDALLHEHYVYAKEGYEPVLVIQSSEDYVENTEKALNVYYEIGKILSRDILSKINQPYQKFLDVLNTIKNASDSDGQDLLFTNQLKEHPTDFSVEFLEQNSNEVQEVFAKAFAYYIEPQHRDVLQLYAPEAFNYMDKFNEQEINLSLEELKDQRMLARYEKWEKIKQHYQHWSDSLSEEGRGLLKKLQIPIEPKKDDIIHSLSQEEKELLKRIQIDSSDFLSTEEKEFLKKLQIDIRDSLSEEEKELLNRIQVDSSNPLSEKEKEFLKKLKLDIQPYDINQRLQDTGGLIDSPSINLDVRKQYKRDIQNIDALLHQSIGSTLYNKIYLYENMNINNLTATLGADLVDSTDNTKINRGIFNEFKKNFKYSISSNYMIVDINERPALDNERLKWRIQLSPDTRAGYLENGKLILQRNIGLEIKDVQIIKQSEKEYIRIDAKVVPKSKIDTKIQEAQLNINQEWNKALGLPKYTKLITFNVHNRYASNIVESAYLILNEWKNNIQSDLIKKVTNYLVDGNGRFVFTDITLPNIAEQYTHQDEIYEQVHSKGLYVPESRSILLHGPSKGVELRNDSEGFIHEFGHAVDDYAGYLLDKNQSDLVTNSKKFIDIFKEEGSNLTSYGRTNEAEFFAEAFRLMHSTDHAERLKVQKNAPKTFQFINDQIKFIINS
Test [19] addresses Botulinum neurotoxin type F (Clostridium botulinum, UniProt P30996). The test can be described thus: High-throughput multiplex microsphere dose response for inhibitors of toxin protease, specifically Botulinum neurotoxin light chain F protease, compounds from Powder Set 01. The test is classed as functional, Clostridium botulinum Bf. Particulars: read-out: EC50_MICROM.
The target in test [20] is T3, Botulinum neurotoxin type A. The test is described as follows: Confirmatory FRET assay using full length substrates for Botulinum neurotoxin light chain A protease, with Powder Set01. The test is classed as functional.

As a reminder, the IC50 is the concentration that gives 50% inhibition. A word on the AC50: it is the concentration at which the activity in the assay is half-maximal.

T1 sequence (P32245 whole entry): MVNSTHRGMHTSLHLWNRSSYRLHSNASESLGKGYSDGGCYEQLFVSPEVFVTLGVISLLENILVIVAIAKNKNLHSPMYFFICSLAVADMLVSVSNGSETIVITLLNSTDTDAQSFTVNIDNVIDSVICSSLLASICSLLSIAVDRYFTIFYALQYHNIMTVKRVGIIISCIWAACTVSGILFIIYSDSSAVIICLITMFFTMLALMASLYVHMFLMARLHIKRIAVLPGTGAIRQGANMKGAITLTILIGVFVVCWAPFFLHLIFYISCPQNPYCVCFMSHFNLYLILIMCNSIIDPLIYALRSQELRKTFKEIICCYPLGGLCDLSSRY
Botulinum neurotoxin type F, sequence (P30996 1-436 limits assumed): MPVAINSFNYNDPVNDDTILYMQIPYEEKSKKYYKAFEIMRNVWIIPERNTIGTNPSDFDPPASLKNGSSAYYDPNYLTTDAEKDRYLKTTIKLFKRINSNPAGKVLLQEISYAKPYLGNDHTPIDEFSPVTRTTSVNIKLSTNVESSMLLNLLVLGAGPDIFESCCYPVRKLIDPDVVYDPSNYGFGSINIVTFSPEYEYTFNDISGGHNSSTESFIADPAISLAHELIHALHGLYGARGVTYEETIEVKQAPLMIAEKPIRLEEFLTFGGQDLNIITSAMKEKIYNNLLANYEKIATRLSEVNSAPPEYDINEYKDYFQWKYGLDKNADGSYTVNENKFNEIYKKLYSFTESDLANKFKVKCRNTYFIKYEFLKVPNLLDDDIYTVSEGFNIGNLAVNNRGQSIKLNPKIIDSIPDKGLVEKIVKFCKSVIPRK

Consider `CC(=O)Nc1cc(-c2ccc(N(C)C)cc2)cn2c(-c3ccc(F)c(Cl)c3)cnc12`, for which, at Melanocortin receptor 4 [1], the EC50 is 3.99 µM (active).

Consider `COc1ccc2oc(=O)c(C(=O)NCc3ccccn3)cc2c1`, for which the IC50 in [2] was 1.53 µM (active).

Regarding `CC1CCc2sc(C(=O)NC(C)C3CCCO3)cc2C1` (stereo not given), the IC50 (in test [3]; in “cells”) was > 67.5 µM (inactive) each time.

Take `O=C(CSc1c2c(nc3ccc(Cl)cc13)CCCC2)N1CCN(C(=O)c2ccco2)CC1`: the IC50 (on Melanocortin receptor 4 [4]; in test [8]) was > 64.6 µM (inactive) each time. Further, the results for the AC50 in [5], in test [6] and in [7] were 11.8 µM (active), 3.75 µM (active) and 65.3 µM (active), respectively.

Turning to `CC(=O)Nc1ccc2sn(-c3ccccc3)c(=O)c2c1`, the values for the EC50 in test [9], in test [11] and in test [13] were > 104 µM (inactive), > 91.2 µM (inactive) and > 91.2 µM (inactive), respectively. Besides, the IC50 in test [10] is 53.3 µM (active); in [12] it was 6.19 µM (active); on Hexokinase, 6.31 µM (active); on Beta Lactamase, 23.4 µM (inactive); in test [14], 12.1 µM (active).

In the case of `Cc1ccc(NC(=O)c2ccc([N+](=O)[O-])o2)cc1C(F)(F)F`, the figures for the IC50 with HEK293 [15], with Jurkat and in the test on HEK293 [16] were 60 µM (inactive), 0.45 µM (active) and 68.5 µM (inactive), respectively.

As to `O=C(Nc1ccc2nc(-c3cccs3)c(-c3cccs3)nc2c1)N1CCOCC1`, the EC50 in test [17] was 5.8 µM (active); in test [18] it was 15.5 µM (active); at Lethal factor, 7.6 µM (active); in test [19], 9.6 µM (active); in test [20], 0.4 µM (active).
